# Article PMC6284057, “Combined Antibacterial Effects of Goat Cathelicidins With Different Mechanisms of Action” (Frontiers in Microbiology, 2018)
# No end group written: not given here.
# What was measured:
# E. faecalis ATCC 29212 = format: cell-based, Enterococcus faecalis; conditions: ATCC 29212, 24 h
# Experimental: Briefly, mid-log phase bacterial test cultures were diluted with the 2× Mueller-Hinton broth (MH, Sigma) supplemented with 1.8% NaCl or without it so that to reach a final cell concentration of 10^6 CFU/ml. 50 μl aliquots of the obtained bacterial suspension were added to 50 μl of the peptide solutions serially diluted with 0.1% water solution of bovine serum albumin (BSA) in 96-well flat-bottom polystyrene microplates (Eppendorf #0030730011). […] The results were expressed as the median values determined on the basis of at least three independent experiments performed in triplicate.
# E. coli (CI 214) = format: cell-based, Escherichia coli; conditions: CI 214, 24 h
# In short: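 Broth microdilution; final inoculum 10^6 CFU/ml of mid-log cells in 2× MH ± 1.8% NaCl; peptide diluted in 0.1% BSA; 37°C, 900 rpm, 24 h. MIC by visible turbidity; median of ≥3 independent experiments run in triplicate.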
# [1] = test system: K. pneumoniae (XDR CI 1056); test: microbe, parasite or virus in culture; format: cell-based, Klebsiella pneumoniae; conditions: Table S2, XDR clinical isolate; NaCl content of medium not stated; read-out: Minimum inhibitory concentration
# Experimental: (§1) Antimicrobial assay was performed as described previously ([Panteleev et al., 2017b]). Briefly, mid-log phase bacterial test cultures were diluted with the 2× Mueller-Hinton broth (MH, Sigma) supplemented with 1.8% NaCl or without it so that to reach a final cell concentration of 10^6 CFU/ml. 50 μl aliquots of the obtained bacterial suspension were added to 50 μl of the peptide solutions serially diluted with 0.1% water solution of bovine serum albumin (BSA) in 96-well flat-bottom polystyrene microplates (Eppendorf #0030730011). After incubation at 37°C and 900 rpm for 24 h the minimum inhibitory concentrations (MIC) were determined as the lowest peptide concentrations that prevented growth of a test microorganism observed as visible turbidity. The results were expressed as the median values determined on the basis of at least three independent experiments performed in triplicate.
# [2] = test system: P. aeruginosa (XDR CI 1049); test: microbe, parasite or virus in culture; format: cell-based, Pseudomonas aeruginosa; conditions: Table S2, XDR clinical isolate; NaCl content of medium not stated; read-out: Minimum inhibitory concentration
# Experimental: as §1
# [3] = test system: P. mirabilis (XDR CI 3423); test: microbe, parasite or virus in culture; format: cell-based, Proteus mirabilis; conditions: Table S2, XDR clinical isolate; NaCl content of medium not stated; read-out: Minimum inhibitory concentration
# Experimental: as §1
Sequence,Minimum inhibitory concentration (E. faecalis ATCC 29212) [µM],MIC (E. coli (CI 214)) [µM],MIC [1] [µM],MIC [2] [µM],MIC [3] [µM]
RRLRPRRPRLPRPRPRPRPRPR [mini-ChBac7.5Nα],>32,4,,,
GRFKRFRKKLKRLWHKVGPFVGPILHY [ChMAP-28],,,0.125,0.5,0.5
